# Experimental data taken from US6489320B1, “5, 5-disubstituted-1, 5-dihydro-4, 1-benzoxazepin-2 (3H)-ones useful as HIV reverse transcriptase inhibitors” (Bristol-Myers Squibb Pharma Company, priority 1997, dated 2002).
# System: not given
# Test: not given
# Conditions: not given
row,melting point [°C],SMILES
1,236 to 237,"C[C@@H]1O[C@](/C=C/C2CC2)(C(F)(F)F)c2c(ccc3c2OCO3)NC1=O (relative stereo) [Example 54, rel-(3S,5S)-trans-6,7-Methylenedioxy-5-(2-cyclopropylethenyl)-1,5-dihydro-3-methyl-5-(trifluoromethyl)-4,1-benzoxazepin-2(3H)-one]"
2,188 to 190,"CC[C@@H]1O[C@](/C=C/C2CC2)(C(F)(F)F)c2c(ccc3c2OCO3)NC1=O (relative stereo) [Example 55, rel-(3S,5S)-trans-6,7-Methylenedioxy-5-(2-cyclopropylethenyl)-1,5-dihydro-3-ethyl-5-(trifluoromethyl)-4,1-benzoxazepin-2(3H)-one]"
3,135 to 136,"CC(C)C#C[C@]1(C(F)(F)F)OCC(=O)Nc2ccc(Cl)cc21 (single isomer, unassigned) [Example 4]"
4,167 to 168,"CCC#CC1(C(F)(F)F)OCC(=O)Nc2ccc(Cl)cc21 (stereo not drawn) [Example 1, 5-(1-Butynyl)-7-chloro-1,5-dihydro-5-(trifluoromethyl)-4,1-benzoxazepin-2(3H)-one]"
5,198 to 199,"CCC#CC1(C(F)(F)F)OC(c2ccccc2)C(=O)Nc2ccc(Cl)cc21 [Example 2, rel-(3S,5S)-5-(1-Butynyl)-7-chloro-1,5-dihydro-3-phenyl-5-(trifluormethyl)-4,1-benzoxazepin-2(3H)-one]"
6,183 to 183.5,"CC(C)C#CC1(C(F)(F)F)OCC(=O)Nc2ccc(Cl)cc21 (stereo not drawn) [Example 3, 7-Chloro-1,5-dihydro-5-(isopropylethynyl)-5-(trifluoromethyl)-4,1-benzoxazepin-2(3H)-one]"
7,157 to 158,"O=C1COC(/C=C/C2CC2)(C(F)(F)F)c2cc(Cl)ccc2N1 (stereo not drawn) [Example 5, trans-7-Chloro-5-(2-cyclopropylethenyl)-1,5-dihydro-5-(trifluoromethyl)-4,1-benzoxazepin-2(3H)-one]"
8,172 to 173,"CC(C)C#CC1(C(F)(F)F)OCC(=O)Nc2ccc(F)cc21 (stereo not drawn) [Example 7, 1,5-Dihydro-7-fluoro-5-isopropylethynyl-5-(trifluoromethyl)-4,1-benzoxazepin-2(3H)-one]"
9,199 to 200,"O=C1COC(/C=C/c2ccco2)(C(F)(F)F)c2cc(Cl)ccc2N1 (stereo not drawn) [Example 10, trans-7-Chloro-1,5-dihydro-5-(2-furan-2-yl)ethenyl-5-(trifluoromethyl)-4,1-benzoxazepin-2(3H)-one]"
10,192.5 to 193.5,"CC(C)C#CC1(C(F)(F)F)OCC(=O)Nc2ccc(F)c(F)c21 (stereo not drawn) [Example 13, 6,7-Difluoro-1,5-dihydro-5-(isopropylethynyl)-5-(trifluoromethyl)-4,1-benzoxazepin-2(3H)-one]"
11,199.5 to 200.5,"O=C1COC(C#CC2CC2)(C(F)(F)F)c2cc(Cl)ccc2N1 (stereo not drawn) [Example 18, 7-Chloro-5-cyclopropylethynyl-1,5-dihydro-5-(trifluoromethyl)-4,1-benzoxazepin-2(3H)-one]"
12,148 to 149,"CC(C)/C=C/C1(C(F)(F)F)OCC(=O)Nc2ccc(Cl)cc21 (stereo not drawn) [Example 20, trans-7-Chloro-5-(2-isopropylethenyl)-1,5-dihydro-5-(trifluoromethyl)-4,1-benzoxazepin-2(3H)-one]"
13,129 to 130,"COc1ccc2c(c1)C(CCC(C)C)(C(F)(F)F)OCC(=O)N2 (stereo not drawn) [Example 21, 7-Methoxy-5-(3-methylbutyl)-1,5-dihydro-5-(trifluoromethyl)-4,1-benzoxazepin-2(3H)-one]"
14,219 to 221,"O=C1COC(C#Cc2cccnc2)(C(F)(F)F)c2cc(Cl)ccc2N1 (stereo not drawn) [Example 24, 7-Chloro-5-(3-pyridylethynyl)-1,5-dihydro-5-(trifluoromethyl)-4,1-benzoxazepin-2(3H)-one]"
15,159 to 160,"CC(C)/C=C/C1(C(F)(F)F)OCC(=O)Nc2ccc(F)c(F)c21 (stereo not drawn) [Example 27, trans-6,7-Difluoro-5-(2-isopropylethenyl)-1,5-dihydro-5-(trifluoromethyl)-4,1-benzoxazepin-2(3H)-one]"
16,145 to 146,"C[C@@H]1O[C@](C#CC2CC2)(C(F)(F)F)c2cc(Cl)ccc2NC1=O [Example 36, (+)-(3S,5S)-7-Chloro-5-cyclopropylethynyl-1,5-dihydro-3-methyl-5-(trifluoromethyl)-4,1-benzoxazepin-2(3H)-one]"
17,175 to 175.5,"C[C@@H]1O[C@](/C=C/C2CC2)(C(F)(F)F)c2cc(Cl)ccc2NC1=O [Example 39, (+)-(3S,5S)-trans-7-Chloro-5-(2-cyclopropylethenyl)-1,5-dihydro-3-methyl-5-(trifluoromethyl)-4,1-benzoxazepin-2(3H)-one]"

# System: HIV-1 (RF)
# Test: HIV RNA assay: microplate based compound evaluation in HIV-1 infected MT-2 cells
# Format: cell-based
# Conditions: Human immunodeficiency virus 1, MT2, 72 h; HIV-1 (RF) infected MT-2 cells, 3 days; virus dilutions selected to give this value (standardization of inoculum); read-out: IC90 value (concentration of compound required to reduce the HIV RNA level by 90%)
# Procedure: Plasmid pDAB 72 containing both gag and pol sequences of BH10 (bp 113-1816) cloned into PTZ 19R was prepared according to Erickson-Viitanen et al. AIDS Research and Human Retroviruses 1989, 5, 577. The plasmid was linearized with Bam HI prior to the generation of in vitro RNA transcripts using the Riboprobe Gemini system II kit (Promega) with T7 RNA polymerase. Synthesized RNA was purified by treatment with RNase free DNAse (Promega), phenol-chloroform extraction, and ethanol precipitation. RNA transcripts were dissolved in water, and stored at −70° C. The concentration of RNA was determined from the A260.
# Biotinylated capture probes were purified by HPLC after synthesis on an Applied Biosystems (Foster City, Calif.) DNA synthesizer by addition of biotin to the 5′ terminal end of the oligonucleotide, using the biotin-phosphoramidite reagent of Cocuzza, Tet. Lett. 1989, 30, 6287. […]
# MT-2 and MT-4 cells were maintained in RPMI 1640 supplemented with 5% fetal calf serum (FCS) for MT-2 cells or 10% FCS for MT-4 cells, 2 mM L-glutamine and 50 μg/mL gentamycin, all from Gibco. […] Infectious titers of HIV-1(RF) stocks were 1-3×10^7 PFU (plaque forming units)/mL as measured by plaque assay on MT-2 cells (see below). […]
row,IC90 [µg/mL],SMILES
1,0.2,"Nc1ccn([C@H]2CC[C@@H](CO)O2)c(=O)n1 [ddC, 2′,3′-dideoxycytidine]"
